In this assay the test system is 556581-035-R-J1-PDC complex spheroid growth. Description: Anticancer human tumor 556581-035-R-J1-PDC patient-derived ovarian carcinoma cell line growth inhibition [Asc]. The following applies: for viability, T/C: stronger effect = lower value. The gist of the method:
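Complex solid-tumor spheroids incorporating human endothelial and mesenchymal stem cells received single agents or combinations over half-log dilution ranges anchored to clinical Cmax.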

Where [1] appears, read: curve of first compound, second compound 0.03 µM.
Where [2] appears, read: curve of first compound, second compound 0.0949 µM.
Where [3] appears, read: curve of first compound, second compound 0.3 µM.
[4] abbreviates: curve of first compound, second compound 0.949 µM.
Where [5] appears, read: curve of first compound, second compound 3 µM.
Setting [6] is: second compound 0.03 µM, first compound 0.0316 µM.
Where [7] appears, read: second compound 0.03 µM, first compound 0.1 µM.
Where [8] appears, read: second compound 0.03 µM, first compound 0.316 µM.
[9] abbreviates: second compound 0.03 µM, first compound 1 µM.
Where [10] appears, read: second compound 0.03 µM, first compound 3.16 µM.
Where [11] appears, read: second compound 0.03 µM, first compound 10 µM.
The mark [12] stands for this setting: second compound 0.0949 µM, first compound 0.0316 µM.
Setting [13] is: second compound 0.0949 µM, first compound 0.1 µM.
Setting [14] is: second compound 0.0949 µM, first compound 0.316 µM.
The mark [15] stands for this setting: second compound 0.0949 µM, first compound 1 µM.
[16] abbreviates: second compound 0.0949 µM, first compound 3.16 µM.
Where [17] appears, read: second compound 0.0949 µM, first compound 10 µM.
Where [18] appears, read: second compound 0.3 µM, first compound 0.0316 µM.
Where [19] appears, read: second compound 0.3 µM, first compound 0.1 µM.
Where [20] appears, read: second compound 0.3 µM, first compound 0.316 µM.
The mark [21] stands for this setting: second compound 0.3 µM, first compound 1 µM.
Where [22] appears, read: second compound 0.3 µM, first compound 3.16 µM.
The mark [23] stands for this setting: second compound 0.3 µM, first compound 10 µM.
The mark [24] stands for this setting: second compound 0.949 µM, first compound 0.0316 µM.
The mark [25] stands for this setting: second compound 0.949 µM, first compound 0.1 µM.
Where [26] appears, read: second compound 0.949 µM, first compound 0.316 µM.
[27] abbreviates: second compound 0.949 µM, first compound 1 µM.
The mark [28] stands for this setting: second compound 0.949 µM, first compound 3.16 µM.
Setting [29] is: second compound 0.949 µM, first compound 10 µM.
Where [30] appears, read: second compound 3 µM, first compound 0.0316 µM.
[31] abbreviates: second compound 3 µM, first compound 0.1 µM.
Where [32] appears, read: second compound 3 µM, first compound 0.316 µM.
Where [33] appears, read: second compound 3 µM, first compound 1 µM.
Where [34] appears, read: second compound 3 µM, first compound 3.16 µM.
Setting [35] is: second compound 3 µM, first compound 10 µM.

Here are results for six compounds from PubChem BioAssay AID1963450 (Molecular Pharmacology Branch, DTP, NCI, 2024).

Each structure is given as a SMILES string. “And” between values parts separate entries of the source, which are not always exact repeats. Equal entries are not always repeated.
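Note: spheroids exposed to agents for 7 days before viability read.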

As to `CCN1C(C(=O)NC23CCC(C(=O)O)(CC2)CC3)C(c2cccc(Cl)c2F)C2(C(=O)Nc3cc(Cl)ccc32)C12CCCCC2` (configuration not stated), under “compound 0.00949 µM”, the viability, T/C is 95.4% and 108%. Further, the IC50 is, setting by setting: (compound alone, run of 10/11/2022) over 3 µM; (curve of compound) over 3 µM.

`COc1c(OCCCN2CCOCC2)ccc2c3n(c(=NC(=O)c4cnc(N)nc4)nc12)CCN3`: the viability, T/C is 78.2% and 82.3% and 79.7% (compound 0.00316 µM); 72.5% and 69% and 57% (compound 0.01 µM); 46.2% and 48.9% and 45.8% (compound 0.0316 µM); 48.2% and 42% and 41% (compound 0.1 µM); 31.7% and 22.4% and 24.1% (compound 0.316 µM); 11.9% and 14.8% and 17.5% (compound 1 µM). Moreover, the IC50 (curve of compound) was 0.0537 µM and 0.0381 µM and 0.0259 µM.

Regarding `C=CC(=O)N1CCN(c2nc(=O)n(-c3c(C)ccnc3C(C)C)c3nc(-c4c(O)cccc4F)c(F)cc23)C(C)C1` (configuration not stated) + Cc1c(S(C)(=O)=O)c(-c2cc(F)cc(N3CCN(c4ccc(NS(=O)(=O)c5ccc(NC(CCN6CCC(C(=O)OCCCP(=O)(O)O)CC6)CSc6ccccc6)c(S(=O)(=O)C(F)(F)F)c5)cc4)CC3)c2)c(-c2ccc(Cl)cc2)n1C(C)C, the IC50 reads like this: (curve of first compound, second compound 0.1 µM) over 10 µM; (curve of first compound, second compound 0.316 µM) over 10 µM; (curve of first compound, second compound 1 µM) over 10 µM; (curve of first compound, second compound 3.16 µM) over 10 µM; (curve of first compound, second compound 10 µM) over 10 µM. Moreover, the viability, T/C runs as follows: (second compound 0.1 µM, first compound 0.0316 µM) 86.6%; (second compound 0.1 µM, first compound 0.1 µM) 83.6%; (second compound 0.1 µM, first compound 0.316 µM) 78.8%; (second compound 0.1 µM, first compound 1 µM) 89.6%; (second compound 0.1 µM, first compound 3.16 µM) 80.1%; (second compound 0.1 µM, first compound 10 µM) 57.9%. In addition, the viability, T/C by setting is: (second compound 0.316 µM, first compound 0.0316 µM) 90.8%; (second compound 0.316 µM, first compound 0.1 µM) 98.3%; (second compound 0.316 µM, first compound 0.316 µM) 79.1%; (second compound 0.316 µM, first compound 1 µM) 80%; (second compound 0.316 µM, first compound 3.16 µM) 81.8%; (second compound 0.316 µM, first compound 10 µM) 64.9%. In addition, the viability, T/C (second compound 1 µM, first compound 0.0316 µM) was 71.8%; the viability, T/C (second compound 1 µM, first compound 0.1 µM) was 71.6%; the viability, T/C (second compound 1 µM, first compound 0.316 µM) is 77.6%; the viability, T/C (second compound 1 µM, first compound 1 µM) was 71.5%; the viability, T/C (second compound 1 µM, first compound 3.16 µM) is 73.6%; the viability, T/C (second compound 1 µM, first compound 10 µM) is 58.9%. The viability, T/C is 72.1% (second compound 3.16 µM, first compound 0.0316 µM); 78.1% (second compound 3.16 µM, first compound 0.1 µM); 62.2% (second compound 3.16 µM, first compound 0.316 µM); 72% (second compound 3.16 µM, first compound 1 µM); 66.4% (second compound 3.16 µM, first compound 3.16 µM); 56.8% (second compound 3.16 µM, first compound 10 µM). The viability, T/C is 66.8% (second compound 10 µM, first compound 0.0316 µM); 59.5% (second compound 10 µM, first compound 0.1 µM); 55.9% (second compound 10 µM, first compound 0.316 µM); 69.5% (second compound 10 µM, first compound 1 µM); 59.6% (second compound 10 µM, first compound 3.16 µM); 46.4% (second compound 10 µM, first compound 10 µM).

For `O=C(c1ccc(F)c(F)c1Nc1ccc(I)cc1F)N1CC(O)([C@@H]2CCCCN2)C1`, the viability, T/C (compound 0.00316 µM) was 108% and 79.6% and 89.6%; the viability, T/C (compound 0.01 µM) is 109% and 97.5% and 101%; the viability, T/C (compound 0.0316 µM) is 59.3% and 70.2% and 121%; the viability, T/C (compound 0.1 µM) was 63.9% and 59.8% and 92%; the viability, T/C (compound 0.316 µM) is 50.6% and 37.8% and 42%; the viability, T/C (compound 1 µM) was 7.45% and 10.7% and 14%. Further, under “curve of compound”, the IC50 was 0.171 µM and 0.164 µM and 0.263 µM.

Turning to `C=CC(=O)N1CCN(c2nc(=O)n(-c3c(C)ccnc3C(C)C)c3nc(-c4c(O)cccc4F)c(F)cc23)C(C)C1` (configuration not stated) + CCN1C(C(=O)NC23CCC(C(=O)O)(CC2)CC3)C(c2cccc(Cl)c2F)C2(C(=O)Nc3cc(Cl)ccc32)C12CCCCC2, the IC50 under setting [1] was over 10 µM; the IC50 under setting [2] is over 10 µM; the IC50 under setting [3] was over 10 µM; the IC50 under setting [4] is over 10 µM; the IC50 under setting [5] was over 10 µM. Further, the viability, T/C reads like this: under setting [6], 96.1%; under setting [7], 98.7%; under setting [8], 95.1%; under setting [9], 102%; under setting [10], 94.3%; under setting [11], 94.4%. Besides, the viability, T/C is, setting by setting: under setting [12], 102%; under setting [13], 99.1%; under setting [14], 104%; under setting [15], 88%; under setting [16], 117%; under setting [17], 99.4%. Besides, the viability, T/C was 102% under setting [18]; 103% under setting [19]; 101% under setting [20]; 86.6% under setting [21]; 116% under setting [22]; 103% under setting [23]. Also, the viability, T/C is, setting by setting: under setting [24], 113%; under setting [25], 95.6%; under setting [26], 119%; under setting [27], 115%; under setting [28], 109%; under setting [29], 103%. The viability, T/C under setting [30] is 93.2%; the viability, T/C under setting [31] was 87.5%; the viability, T/C under setting [32] was 96%; the viability, T/C under setting [33] was 96.5%; the viability, T/C under setting [34] is 103%; the viability, T/C under setting [35] is 84.8%.

In the case of `C=C(F)C(=O)N1CCN(c2nc(OCC3CCCN3C)nc3c2CCN(c2cccc4cccc(Cl)c24)C3)CC1CC#N` (configuration not stated) + CCN1C(C(=O)NC23CCC(C(=O)O)(CC2)CC3)C(c2cccc(Cl)c2F)C2(C(=O)Nc3cc(Cl)ccc32)C12CCCCC2, the IC50 runs as follows: under setting [1], 3.8 µM; under setting [2], 3.86 µM; under setting [3], 3.88 µM; under setting [4], 4.39 µM; under setting [5], 2.67 µM. Moreover, the viability, T/C under setting [6] was 92.1%; the viability, T/C under setting [7] is 97.3%; the viability, T/C under setting [8] is 112%; the viability, T/C under setting [9] was 94.5%; the viability, T/C under setting [10] was 59%; the viability, T/C under setting [11] was 3.04%. Besides, the viability, T/C runs as follows: under setting [12], 114%; under setting [13], 102%; under setting [14], 90.8%; under setting [15], 87.8%; under setting [16], 62.5%; under setting [17], 3.7%. Moreover, the viability, T/C is, setting by setting: under setting [18], 103%; under setting [19], 92.5%; under setting [20], 103%; under setting [21], 81.6%; under setting [22], 61.4%; under setting [23], 3.01%. Besides, the viability, T/C is 91.7% under setting [24]; 99.2% under setting [25]; 98.3% under setting [26]; 84.9% under setting [27]; 65.6% under setting [28]; 12.3% under setting [29]. For the same compound, the viability, T/C reads like this: under setting [30], 89.8%; under setting [31], 105%; under setting [32], 92.5%; under setting [33], 79.2%; under setting [34], 45.2%; under setting [35], 2.9%.

One may read the viability, T/C as the result in the treated group divided by that in the control group, in per cent. As usually defined, the IC50 is the concentration that gives 50% inhibition.
